Series [1] has as its system Jurkat. Kind of series: Antiproliferative activity against human Jurkat cells assessed as reduction in cell viability incubated for 48 hrs by CCK-8 assay. The class given is functional, cell-based.
For series [2], the target named is DNA-dependent protein kinase catalytic subunit (Homo sapiens, UniProt P78527). Briefly: Inhibition of human full-length DNA-PK using EPPLSQEAFADLWKK as substrate incubated for 60 mins in presence of ATP by ADP-Glo kinase assay.
The test system of series [3] is CT26. Briefly: Antiproliferative activity against mouse CT26 cells assessed as reduction in cell viability incubated for 48 hrs by CCK-8 assay. The class given is functional, cell-based. As to conditions: CT26, 48 h.
The test system of series [4] is B16-F10. Briefly: Antiproliferative activity against mouse B16-F10 cells assessed as reduction in cell viability incubated for 48 hrs by CCK-8 assay. As to conditions: B16-F10, 48 h. The class given is functional, cell-based.
Series [5] relates to HepG2. Kind of series: Inhibition of DNA damage repair in human HepG2 cells assessed as reduction in gammaH2AX expression level at 20 uM by Western blot analysis. The class given is functional, cell-based.
For series [6], the system named is Jurkat. Kind of series: Synergistic antiproliferative activity against human Jurkat cells assessed as reduction in cell viability incubated for 48 hrs in presence of doxorubicin by CCK-8 assay. The class given is functional, cell-based.
The test system of series [7] is Cell membrane. Briefly: Induction of mitochondrial membrane potential loss in human Jurkat cells at 1 uM incubated for 24 hrs by JC-1 staining based flow cytometric analysis. The class given is cell membranes.
The test system of series [8] is CT26. Briefly: Synergistic antiproliferative activity against mouse CT26 cells assessed as reduction in cell viability incubated for 48 hrs in presence of doxorubicin by CCK-8 assay. The class given is functional, cell-based. The settings on record: CT26, 48 h.
Series [9] concerns B16-F10. Briefly: Synergistic antiproliferative activity against mouse B16-F10 cells assessed as reduction in cell viability incubated for 48 hrs in presence of doxorubicin by CCK-8 assay. The settings on record: B16-F10, 48 h. The class given is functional, cell-based.
Series [10] deals with Jurkat. Kind of series: Induction of cell cycle arrest in human Jurkat cells assessed as decrease in S phase cells at 1 uM incubated for 24 hrs in presence of doxorubicin by PI staining based flow cytometric analysis. The class given is functional.
In series [11] the test system is Jurkat. Kind of series: Induction of cell cycle arrest in human Jurkat cells assessed as increase in G2/M phase cells at 1 uM incubated for 24 hrs in presence of doxorubicin by PI staining based flow cytometric analysis. The class given is functional.
Series [12] relates to Cell membrane. Kind of series: Induction of mitochondrial membrane potential loss in human Jurkat cells at 1 uM incubated for 24 hrs in presence of doxorubicin by JC-1 staining based flow cytometric analysis. The class given is cell membranes.
For series [13], the system named is B16-F10. Kind of series: Immunomodulatory activity in mouse B16-F10 cells implanted in C57BL/6 mouse assessed as percentage of CD3 positive CD8 positive cells in tumor at 50 mg/kg, ip administered once daily for 13 days by flow cytometric analysis (reference value: 0.99%). The class given is functional. The settings on record: time 13 day.
The subject of series [14] is B16-F10. Kind of series: Immunomodulatory activity in mouse B16-F10 cells implanted in C57BL/6 mouse assessed as percentage of CD3 positive CD4 positive cells in tumor at 50 mg/kg, ip administered once daily for 13 days by flow cytometric analysis (reference value: 0.86%). The class given is functional. As to conditions: time 13 day.
Series [15] relates to B16-F10. Kind of series: Antitumor activity against mouse B16-F10 cells implanted in C57BL/6 mouse assessed as tumor growth inhibition at 50 mg/kg, ip administered once daily for 13 days relative to control. The class given is functional. As to conditions: B16-F10, 312 h, time 13 day, read-out: TGI.
Series [16] can be described thus: Toxicity in C57BL/6 mouse implanted with mouse B16-F10 cells assessed as effect on body weight at 50 mg/kg, ip administered once daily for 13 days. The class given is organism-based. As to conditions: in vivo, 312 h, time 13 day.
For series [17], the system named is CT26. Kind of series: Antitumor activity against mouse CT26 cells implanted in BALB/c mouse assessed as tumor growth inhibition at 2.5 mg/kg, iv administered once a week for 21 days relative to control. The settings on record: CT26, 504 h, time 21 day, read-out: TGI. The class given is functional.
Series [18] concerns CT26. Kind of series: Antitumor activity against mouse CT26 cells implanted in BALB/c mouse assessed as tumor growth inhibition at 10 mg/kg, ip administered once daily for 21 days relative to control. The class given is functional. The settings on record: CT26, 504 h, time 21 day, read-out: TGI.
For series [19], the system named is B16-F10. Briefly: Antiproliferative activity against mouse B16-F10 cells assessed as inhibition of cell growth incubated for 48 hrs by CCK-8 assay relative to control. The class given is functional.
Series [20] concerns CT26. Kind of series: Antiproliferative activity against mouse CT26 cells assessed as inhibition of cell growth incubated for 48 hrs by CCK-8 assay relative to control. The class given is functional.
Series [21] in a line: Toxicity in BALB/c mouse implanted with mouse CT26 cells assessed as weight loss at 2.5 mg/kg, iv administered once a week for 21 days. The settings on record: in vivo, 504 h, time 21 day. The class given is organism-based.
For series [22], the system named is Jurkat. Briefly: Antiproliferative activity against human Jurkat cells assessed as inhibition of cell growth incubated for 48 hrs by CCK-8 assay relative to control. The class given is functional.

Active and inactive are the calls of the source. No cut-off for these calls is given here. Some results are limits rather than exact numbers.

DNA-dependent protein kinase catalytic subunit, sequence (P78527 whole entry): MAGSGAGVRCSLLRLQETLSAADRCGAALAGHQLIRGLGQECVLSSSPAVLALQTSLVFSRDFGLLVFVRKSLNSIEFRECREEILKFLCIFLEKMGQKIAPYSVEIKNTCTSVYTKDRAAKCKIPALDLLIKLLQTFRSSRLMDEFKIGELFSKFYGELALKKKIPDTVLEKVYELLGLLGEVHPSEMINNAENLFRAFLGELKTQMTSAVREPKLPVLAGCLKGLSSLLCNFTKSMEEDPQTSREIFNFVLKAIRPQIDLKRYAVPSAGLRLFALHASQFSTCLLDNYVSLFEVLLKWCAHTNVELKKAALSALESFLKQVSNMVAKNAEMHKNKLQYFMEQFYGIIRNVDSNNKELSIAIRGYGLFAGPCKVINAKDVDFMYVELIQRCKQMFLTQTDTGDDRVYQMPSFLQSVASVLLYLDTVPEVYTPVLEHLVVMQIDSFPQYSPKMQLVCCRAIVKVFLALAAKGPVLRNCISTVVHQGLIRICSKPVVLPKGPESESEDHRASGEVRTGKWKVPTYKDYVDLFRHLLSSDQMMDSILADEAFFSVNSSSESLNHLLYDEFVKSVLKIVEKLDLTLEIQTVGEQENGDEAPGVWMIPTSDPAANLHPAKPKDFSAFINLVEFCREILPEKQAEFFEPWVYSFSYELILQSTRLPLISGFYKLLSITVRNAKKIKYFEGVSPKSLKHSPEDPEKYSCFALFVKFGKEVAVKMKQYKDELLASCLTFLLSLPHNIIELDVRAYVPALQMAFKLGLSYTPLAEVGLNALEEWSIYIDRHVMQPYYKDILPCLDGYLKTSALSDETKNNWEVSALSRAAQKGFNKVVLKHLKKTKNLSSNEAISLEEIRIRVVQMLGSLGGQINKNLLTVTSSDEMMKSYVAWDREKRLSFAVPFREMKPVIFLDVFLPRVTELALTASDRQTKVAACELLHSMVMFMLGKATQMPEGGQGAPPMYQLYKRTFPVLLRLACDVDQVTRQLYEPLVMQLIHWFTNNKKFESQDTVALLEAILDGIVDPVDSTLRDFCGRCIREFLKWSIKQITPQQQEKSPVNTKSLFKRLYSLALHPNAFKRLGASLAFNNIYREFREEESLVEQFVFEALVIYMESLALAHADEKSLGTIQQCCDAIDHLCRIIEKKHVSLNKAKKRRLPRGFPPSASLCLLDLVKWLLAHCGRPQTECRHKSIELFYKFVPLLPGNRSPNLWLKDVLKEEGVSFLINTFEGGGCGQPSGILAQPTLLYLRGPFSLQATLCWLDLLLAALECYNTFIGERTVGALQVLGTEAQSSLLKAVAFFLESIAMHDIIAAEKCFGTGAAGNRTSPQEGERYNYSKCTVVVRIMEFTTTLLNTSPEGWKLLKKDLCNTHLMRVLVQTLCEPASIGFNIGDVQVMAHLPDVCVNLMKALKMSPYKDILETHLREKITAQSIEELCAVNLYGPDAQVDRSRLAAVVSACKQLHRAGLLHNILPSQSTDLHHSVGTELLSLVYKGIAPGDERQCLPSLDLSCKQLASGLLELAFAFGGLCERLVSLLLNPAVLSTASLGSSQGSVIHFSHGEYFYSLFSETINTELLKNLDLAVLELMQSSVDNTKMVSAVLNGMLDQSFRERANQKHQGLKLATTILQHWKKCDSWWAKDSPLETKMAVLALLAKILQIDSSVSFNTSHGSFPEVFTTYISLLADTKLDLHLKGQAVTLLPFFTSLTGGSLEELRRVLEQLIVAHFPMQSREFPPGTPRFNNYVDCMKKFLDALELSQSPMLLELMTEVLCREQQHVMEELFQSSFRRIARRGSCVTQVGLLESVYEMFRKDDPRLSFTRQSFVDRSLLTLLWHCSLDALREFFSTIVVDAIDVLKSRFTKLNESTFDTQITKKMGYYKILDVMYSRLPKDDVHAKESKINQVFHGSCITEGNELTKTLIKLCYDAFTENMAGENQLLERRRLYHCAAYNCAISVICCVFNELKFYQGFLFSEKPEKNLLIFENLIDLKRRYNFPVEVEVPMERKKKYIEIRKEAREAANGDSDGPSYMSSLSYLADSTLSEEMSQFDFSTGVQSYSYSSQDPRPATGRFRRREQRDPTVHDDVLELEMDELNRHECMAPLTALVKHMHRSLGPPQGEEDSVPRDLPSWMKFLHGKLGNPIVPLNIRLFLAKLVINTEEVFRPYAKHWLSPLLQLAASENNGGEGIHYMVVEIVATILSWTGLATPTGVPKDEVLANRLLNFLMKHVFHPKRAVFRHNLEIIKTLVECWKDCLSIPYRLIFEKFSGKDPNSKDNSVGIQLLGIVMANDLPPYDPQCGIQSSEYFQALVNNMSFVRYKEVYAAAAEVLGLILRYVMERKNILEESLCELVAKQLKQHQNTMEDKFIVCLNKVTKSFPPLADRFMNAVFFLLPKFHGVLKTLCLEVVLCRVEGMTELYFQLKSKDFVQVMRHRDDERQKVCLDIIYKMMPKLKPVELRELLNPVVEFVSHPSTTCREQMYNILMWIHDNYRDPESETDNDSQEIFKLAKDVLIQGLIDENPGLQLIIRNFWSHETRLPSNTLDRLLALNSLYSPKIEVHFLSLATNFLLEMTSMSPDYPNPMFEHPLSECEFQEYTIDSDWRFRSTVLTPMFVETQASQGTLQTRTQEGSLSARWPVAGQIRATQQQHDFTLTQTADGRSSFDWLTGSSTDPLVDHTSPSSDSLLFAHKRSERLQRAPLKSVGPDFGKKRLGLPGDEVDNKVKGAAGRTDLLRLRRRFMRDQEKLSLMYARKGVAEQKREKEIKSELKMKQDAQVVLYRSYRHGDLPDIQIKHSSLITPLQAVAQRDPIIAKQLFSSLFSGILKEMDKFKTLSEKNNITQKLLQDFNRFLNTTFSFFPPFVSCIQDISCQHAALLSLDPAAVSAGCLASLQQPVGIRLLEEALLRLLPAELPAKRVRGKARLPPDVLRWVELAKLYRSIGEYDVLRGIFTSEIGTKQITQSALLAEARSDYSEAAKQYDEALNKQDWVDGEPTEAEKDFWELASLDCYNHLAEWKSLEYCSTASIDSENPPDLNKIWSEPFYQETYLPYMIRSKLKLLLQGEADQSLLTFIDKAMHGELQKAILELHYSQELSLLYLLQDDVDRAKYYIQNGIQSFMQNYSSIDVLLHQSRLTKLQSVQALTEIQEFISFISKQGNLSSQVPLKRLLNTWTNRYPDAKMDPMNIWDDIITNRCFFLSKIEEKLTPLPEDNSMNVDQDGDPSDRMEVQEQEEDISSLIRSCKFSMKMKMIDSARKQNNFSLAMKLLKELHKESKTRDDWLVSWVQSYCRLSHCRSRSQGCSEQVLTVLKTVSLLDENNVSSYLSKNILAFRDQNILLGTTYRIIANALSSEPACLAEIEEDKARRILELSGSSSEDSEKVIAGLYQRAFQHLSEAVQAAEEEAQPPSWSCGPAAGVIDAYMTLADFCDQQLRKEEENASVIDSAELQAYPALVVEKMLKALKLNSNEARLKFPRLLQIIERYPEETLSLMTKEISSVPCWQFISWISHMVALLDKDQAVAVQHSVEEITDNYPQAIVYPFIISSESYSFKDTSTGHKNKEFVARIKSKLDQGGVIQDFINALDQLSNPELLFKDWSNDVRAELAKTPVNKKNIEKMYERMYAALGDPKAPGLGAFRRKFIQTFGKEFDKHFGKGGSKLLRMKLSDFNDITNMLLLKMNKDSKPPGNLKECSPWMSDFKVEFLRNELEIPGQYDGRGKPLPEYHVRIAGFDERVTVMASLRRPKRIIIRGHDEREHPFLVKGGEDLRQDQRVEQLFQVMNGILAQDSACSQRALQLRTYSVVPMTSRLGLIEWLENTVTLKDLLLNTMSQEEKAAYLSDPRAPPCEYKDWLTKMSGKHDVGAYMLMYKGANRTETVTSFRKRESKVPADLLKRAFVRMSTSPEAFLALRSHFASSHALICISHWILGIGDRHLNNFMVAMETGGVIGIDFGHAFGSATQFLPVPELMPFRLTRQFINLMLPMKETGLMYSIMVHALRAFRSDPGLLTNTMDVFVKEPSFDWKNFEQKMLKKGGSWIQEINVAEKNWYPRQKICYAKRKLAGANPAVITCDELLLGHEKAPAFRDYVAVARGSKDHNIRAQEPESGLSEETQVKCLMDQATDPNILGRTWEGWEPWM

As to `Cc1cnc(-c2cnn(C)c2)cc1Nc1ncc2c(n1)N(C1CCOCC1)Cc1nncn1-2`, the IC50 in series [1] was over 50 µM; in series [2], 0.0261 µM; in series [3], over 50 µM; in series [4], over 50 µM.
As for `Cc1cc2ncnn2cc1Nc1ncc2c(n1)N(C1CCOCC1)CC(=O)N2C`, the inhibition entry in [5] is “Active”. The IC50 in series [1] was 11.4 µM; in series [6], 0.11 µM; in series [8] it was 9.35 µM; in series [3] it was 32.9 µM; in series [9], 20.6 µM; in [4], 46.8 µM. In addition, in series [7], the outcome was inactive.
For `c1cnc2cc(Nc3ncc4c(n3)N(C3CCOCC3)Cc3nncn3-4)ccc2n1`, the IC50 is 4.1 µM in [1], 0.0715 µM in [2], 45.9 µM in series [3] and over 50 µM in series [4].
As for `Cc1cc2ncnn2cc1Nc1ncc2c(n1)n(C1CCOCC1)c(=O)n2C` [AZD-7648], the result in series [10], in series [11] and in [12] was Active. In series [5], the inhibition result was “Active”. In addition, the IC50 was 12.3 µM in series [1]; 0.09 µM in series [6]; 6.74 µM in series [8]; 18.8 µM in series [3]; 11.4 µM in series [9]; 33.6 µM in [4]. The result in [7] was inactive.
`Cc1cc2ncnn2cc1Nc1ncc2c(n1)N(C1CCOCC1)Cc1nncn1-2`: the IC50 in [1] was over 50 µM; in series [2] it was 0.0056 µM; in series [3], over 50 µM; in series [4] it was over 50 µM.
For the molecule `COc1ccc(Nc2ncc3c(n2)N(C2CCOCC2)Cc2nccn2-3)c(C)c1`, the IC50 in series [1] was 1.4 µM; in series [6], 0.51 µM; in [2], 0.0089 µM; in series [8], 15.3 µM; in series [3], 31.2 µM; in series [9], 21.9 µM. Further, the IC50 in series [4] amounted to 41.8 µM.
In the case of `Cc1nnc2n1-c1cnc(Nc3ccc4nccnc4c3)nc1N(C1CCOCC1)C2`, the 50% inhibitory concentration (IC50) in [1] stood at 0.9 µM; in [6], 0.17 µM; in series [2] it was 0.0518 µM; in [8] it was 9.7 µM; in series [3], 19.4 µM; in series [9] it was 26.9 µM. In addition, the IC50 in series [4] turned out to be 26.9 µM.
On to `Cc1cc2cccnc2cc1Nc1ncc2c(n1)N(C1CCOCC1)Cc1nccn1-2`, for which the IC50 is 0.7 µM in [1]; 0.04 µM in [6]; 0.00035 µM in [2]; 3.1 µM in series [8]; 8.9 µM in series [3]; 7.5 µM in series [9]. For the same molecule, the IC50 in [4] turned out to be 19.5 µM.
Regarding `Cc1c(COc2cc(OCc3cccc(C#N)c3)c(CN3CCCCC3C(=O)NCCNC(=O)CCCC[C@@H]3SC[C@@H]4NC(=O)N[C@@H]43)cc2Cl)cccc1-c1ccccc1` (stereo partly specified), the Activity in series [13] was 3.53%; in series [14], 3.23%; in [16], “Non-Toxic”. For the same molecule, in series [15], the inhibition in vivo at 50 mg/kg is 48.2%.
As for `Cc1cnc(-c2cnn(C)c2)cc1Nc1ncc2c(n1)N(C1CCOCC1)Cc1nnc(C)n1-2`, the IC50 is 5.7 µM in series [1], 0.0214 µM in series [2], over 50 µM in series [3] and over 50 µM in series [4].
As for `Cc1cc2cccnc2cc1Nc1ncc2c(n1)N(C1CCOCC1)Cc1nnc(C)n1-2`, the IC50 turned out to be 0.8 µM in [1]; 0.05 µM in series [6]; 0.00062 µM in series [2]; 1.5 µM in series [8]; 5.2 µM in series [3]; 6.5 µM in series [9]. Moreover, the IC50 in series [4] came out at 12.9 µM.
Turning to `COc1ccc(Nc2ncc3c(n2)N(C2CCOCC2)Cc2nnc(C)n2-3)c(C)c1`, the IC50 in [1] is over 50 µM; in series [2] it was 0.0153 µM; in series [3] it was over 50 µM; in series [4] it was over 50 µM.
As for `Cc1cc2ncnn2cc1Nc1ncc2c(n1)N(C1CCOCC1)Cc1nccn1-2`, the IC50 was 9.4 µM in series [1], 0.0036 µM in series [2], over 50 µM in [3] and over 50 µM in series [4].
In the case of `c1cn2c(n1)CN(C1CCOCC1)c1nc(Nc3ccc4nccnc4c3)ncc1-2`, the IC50 in series [1] came out at 0.8 µM; in series [6], 0.21 µM; in series [2] it was 0.0628 µM; in series [8], 14.9 µM; in [3] it was 27.6 µM; in series [9], 20.9 µM. The IC50 in series [4] is 31.9 µM.
Take `Cc1cnc(-c2cnn(C)c2)cc1Nc1ncc2c(n1)N(C1CCOCC1)Cc1nccn1-2`: the IC50 in [1] is 15 µM; in series [2] it was 0.0294 µM; in series [3] it was over 50 µM; in series [4], over 50 µM.
Take `COc1cccc2c1C(=O)c1c(O)c3c(c(O)c1C2=O)C[C@@](O)(C(=O)CO)C[C@@H]3O[C@H]1C[C@H](N)[C@H](O)[C@H](C)O1` [DOXORUBICIN]: the inhibition in vivo at 2.5 mg/kg in series [17] was determined as 25.9%. For the same molecule, the inhibition in vivo at 10 mg/kg in [18] was 30.8%. Also, the “inhibition (INH)” value is 6.2% in series [19], 9.75% in series [20] and 23% in [22]. For the same molecule, the Activity result in [21] is on record as “Non-Toxic”.
With `Cc1cc2ncnn2cc1Nc1ncc2c(n1)N(C1CCOCC1)Cc1nnc(C)n1-2`, the IC50 in [1] was 25.2 µM; in series [2], 0.0084 µM; in [3], over 50 µM; in [4], over 50 µM.

The record behind these values is ChEMBL document CHEMBL5543136, “Discovery of Novel Heterotricyclic Compounds as DNA-Dependent Protein Kinase (DNA-PK) Inhibitors with Enhanced Chemosensitivity, Oral Bioavailability, and the Ability to Potentiate Cancer Immunotherapy” (J Med Chem, 2024).
